Literature values as cited in publication PMC8309005, “Novel Non-Congeneric Derivatives of the Choline Kinase Alpha Inhibitor ICL-CCIC-0019” (Pharmaceutics, 2021).
Where two headings read alike, the source gives them in different places.

Assays:
[1] = tested on: MCF-10A and ST-T1B (2 normal cell lines); conditions: read-out: GI50 range of 2 normal cell lines (MCF-10A and ST-T1B); cited from earlier work
A549 = conditions: cited from earlier work
8 cancer cell lines = tested on: 8 cancer cell lines; parameters: method as in PMID 27206796; conditions: cited from earlier work
HCT116 xenografts = conditions: cited from earlier work
[2] = tested on: Δ49N CHKA2 (recombinant CHKA2); conditions: read-out: IC50 Δ49N CHKA2; cited from earlier work
HCT-116 = conditions: cited from earlier work

Compound: CN(C)c1cc[n+](CCCCCCCCCCCC[n+]2ccc(N(C)C)cc2)cc1 [ICL-CCIC-0019]
- GI50 [1]: 30000 to 120000 nM
- GI50 (A549): 380 nM
- GI50 (8 cancer cell lines; read-out: GI50 range of 8 cancer cell lines): 380 to 2700 nM
- GI50 (8 cancer cell lines; read-out: mean GI50 of 8 cancer cell lines): 1090 nM
- in vivo anti-tumor activity (in words) (HCT116 xenografts): potent in vivo anti-tumor activity
- body weight effect (in words) (HCT116 xenografts; in vivo): slight reduction in body weight
- IC50 [2]: 270 ± 60 nM
- GI50 (HCT-116): 640 nM
